Measured values reported in the NIST ThermoML archive (doi:10.1021/acs.jced.6b00181).

Test: xn = mol fraction of the nth substance listed
Conditions: Liquid, Other PVT measurement

C=CC [propene] + CCCCCC
Conditions	mass density [kg/m3]
294.9 K, 1200 kPa, x1 = 0.9003	515.1
294.9 K, 1800 kPa, x1 = 0.9003	516.8
294.9 K, 2800 kPa, x1 = 0.9003	519
294.9 K, 3300 kPa, x1 = 0.9003	520.8
294.9 K, 4400 kPa, x1 = 0.9003	523.3
294.9 K, 10300 kPa, x1 = 0.9003	535.5
294.9 K, 17100 kPa, x1 = 0.9003	547.5
294.9 K, 24100 kPa, x1 = 0.9003	557.1
294.9 K, 30800 kPa, x1 = 0.9003	565.9
294.9 K, 37800 kPa, x1 = 0.9003	573.2
294.9 K, 44200 kPa, x1 = 0.9003	580.2
294.9 K, 51200 kPa, x1 = 0.9003	587.4
294.9 K, 55000 kPa, x1 = 0.9003	591.5
294.9 K, 58300 kPa, x1 = 0.9003	593.8
294.9 K, 67300 kPa, x1 = 0.9003	601.9
295 K, 1400 kPa, x1 = 0.606	568
295 K, 5200 kPa, x1 = 0.606	574.6
295 K, 6800 kPa, x1 = 0.606	577
295 K, 10300 kPa, x1 = 0.606	582.2
295 K, 17200 kPa, x1 = 0.606	592
295 K, 23900 kPa, x1 = 0.606	600
295 K, 30600 kPa, x1 = 0.606	606.9
295 K, 37500 kPa, x1 = 0.606	613.5
295 K, 44500 kPa, x1 = 0.606	619.4
295 K, 51100 kPa, x1 = 0.606	624.9
295 K, 57900 kPa, x1 = 0.606	630
295 K, 63100 kPa, x1 = 0.606	634.3
295 K, 66800 kPa, x1 = 0.606	636.7
295.3 K, 500 kPa, x1 = 0.4466	592.6
295.3 K, 700 kPa, x1 = 0.4466	594.3
295.3 K, 1400 kPa, x1 = 0.4466	595.1
295.3 K, 2100 kPa, x1 = 0.4466	596.8
295.3 K, 2800 kPa, x1 = 0.4466	597.6
295.3 K, 3700 kPa, x1 = 0.4466	598.9
295.3 K, 4800 kPa, x1 = 0.4466	600.6
295.3 K, 6800 kPa, x1 = 0.4466	603.6
295.3 K, 10200 kPa, x1 = 0.4466	607.9
295.3 K, 16900 kPa, x1 = 0.4466	615.3
295.3 K, 24100 kPa, x1 = 0.4466	622.5
295.3 K, 30900 kPa, x1 = 0.4466	629
295.3 K, 38100 kPa, x1 = 0.4466	634.6
295.3 K, 44500 kPa, x1 = 0.4466	640.3
295.3 K, 51600 kPa, x1 = 0.4466	646.2
295.3 K, 58300 kPa, x1 = 0.4466	651.1
295.3 K, 63000 kPa, x1 = 0.4466	654.6
295.3 K, 66500 kPa, x1 = 0.4466	657.1
295.6 K, 700 kPa, x1 = 0.1414	638.3
295.6 K, 1300 kPa, x1 = 0.1414	639.2
295.6 K, 1700 kPa, x1 = 0.8985	516.2
295.6 K, 1900 kPa, x1 = 0.8985	518.5
295.6 K, 2600 kPa, x1 = 0.8985	518.5
295.6 K, 3500 kPa, x1 = 0.1414	642
295.6 K, 3600 kPa, x1 = 0.8985	522.1
295.6 K, 4900 kPa, x1 = 0.8985	524.5
295.6 K, 7000 kPa, x1 = 0.8985	528.5
295.6 K, 8200 kPa, x1 = 0.1414	646.8
295.6 K, 8500 kPa, x1 = 0.8985	532.3
295.6 K, 10100 kPa, x1 = 0.8985	535.7
295.6 K, 10500 kPa, x1 = 0.8985	535.7
295.6 K, 10700 kPa, x1 = 0.1414	649.7
295.6 K, 13800 kPa, x1 = 0.8985	541.2
295.6 K, 14900 kPa, x1 = 0.1414	653.6
295.6 K, 16700 kPa, x1 = 0.8985	546.4
295.6 K, 17200 kPa, x1 = 0.8985	546.4
295.6 K, 20700 kPa, x1 = 0.1414	659.5
295.6 K, 23200 kPa, x1 = 0.8985	555.2
295.6 K, 24000 kPa, x1 = 0.1414	662.5
295.6 K, 27200 kPa, x1 = 0.1414	665.6
295.6 K, 29100 kPa, x1 = 0.8985	562.8
295.6 K, 30800 kPa, x1 = 0.1414	668.6
295.6 K, 34400 kPa, x1 = 0.8985	568.4
295.6 K, 37100 kPa, x1 = 0.1414	673.8
295.6 K, 38100 kPa, x1 = 0.8985	573.9
295.6 K, 41000 kPa, x1 = 0.8985	576.4
295.6 K, 42700 kPa, x1 = 0.1414	678.5
295.6 K, 44800 kPa, x1 = 0.8985	581.2
295.6 K, 47800 kPa, x1 = 0.1414	682.2
295.6 K, 48000 kPa, x1 = 0.1414	682.8
295.6 K, 48200 kPa, x1 = 0.1414	682.8
295.6 K, 48200 kPa, x1 = 0.8985	584.2
295.6 K, 48300 kPa, x1 = 0.1414	682.8
295.6 K, 51600 kPa, x1 = 0.8985	588
295.6 K, 52000 kPa, x1 = 0.1414	685.5
295.6 K, 54900 kPa, x1 = 0.8985	590.4
